One data set deals with T1, CYP2C9 (Homo sapiens, UniProt P11712).
T1 construct: from tissue
Briefly: 5 in 1 CYP inhibition assay, CYP2C9. Type of data set: in vitro ADME. The settings on record: microsomes, probe diclofenac (4′-hydroxylation), test compound 10 μM, n=2, read-out: inhibition of cytochrome P450 isoform 2C9. As for the experimental part:
(§1) CYP450 dependent activities were determined using a marker substrate cocktail. For each reaction, enzyme activities in the presence and absence of test compound (10 μM) were measured in duplicate. A known inhibitor for each isoform, tested at a single concentration (3 μM, n=2), was included as positive control. Incubation mixtures containing microsomes, substrate, and standard inhibitor or test compound were warmed at 37° C. for 10 minutes. Reactions were initiated by addition of the NADPH and incubated for 10 min. [table] After incubation, ice cold acetonitrile was added to terminate the reaction. Generation of metabolites from the substrate reactions was determined by LC-MS/MS.

For the next data set, the system named is human naïve T cells. The experiment in a line: Stimulation of blood derived naïve T cells with Der p1 (house dust mite) antigen. Type of data set: cell-based. Particulars: human naïve T cells, Der p1 antigen 5 days; 0.1-100 μM; FIG. 14. As for the experimental part: Naïve T cells from peripheral blood samples were collected and processed using MACSxpress® Whole Blood Pan T Cell Isolation Kit (Miltenyi Biotec), according to the manufacturer's protocol. Isolated naïve T cells were cultured in RPMI medium supplemented with 5% Fetal Bovine Serum (FBS) at 37° C. with 5% (v/v) CO2. T cells were seeded in 24 well plates at a density of 0.5×10^6 cells per well. The cells were pre-treated with the compounds (0, 0.1, 1.0, 10, 100 μM) for 1 hour prior to stimulation. Cells were stimulated with […] of Dermatophagoides pteronyssinus (Der p1) antigen. After 48 hours, fresh […] of Der p1 was added and continued incubating for a further 72 hours at 37° C. with 5% (v/v) CO2. Overall T cells were stimulated with […] of Der p1 antigen for 5 days before supernatants were collected and stored at −80° C. until quantitative detection assays are performed.
Human Interleukin-4 (IL-4), Interleukin-5 (IL-5), Interleukin-6 (IL-6), Interleukin-8 (IL-8), Interleukin-13 ([…]), Interleukin-23 (IL-23), and Interferon gamma (IFNγ) released from supernatants collected post stimulation were measured using Human Magnetic Luminex® Assay Kit. Human Transforming Growth Factor beta (TGFβ) was measured using an Enzyme-Linked Immunosorbent Assay (ELISA)-based analysis.

A short description of data set [1]: Stability in plasma (rat). Type of data set: in vitro ADME. Particulars: after 120 minutes, 37° C. The procedure:
The pH of plasma was adjusted to 7.4±0.1 if required. 1 mM intermediate solution was prepared by diluting 10 μL of the 10 mM stock solution of 1 with 90 μL DMSO; 1 mM intermediate of positive control propantheline bromide was prepared by diluting 10 μL of the stock solution with 90 μL ultra-pure water. 100 μM dosing solution was prepared by diluting 10 μL of the 1 mM intermediate solution with 90 μL of 45% MeOH/H2O. 98 μL of blank plasma was spiked with 2 μL of the 100 μM dosing solution to achieve a final concentration of 2 μM of the compound in duplicate. Samples were incubated at 37° C. in a water bath. At each time point (0, 10, 30, 60 and 120 min), 400 μL of stop solution (200 ng/mL tolbutamide plus 200 ng/mL labetalol in 50% ACN/MeOH) was added and was mixed thoroughly to precipitate protein. Sample plates were centrifuged at 4,000 rpm for 10 min. An aliquot of supernatant (100 μL) was transferred from each well and was mixed with 200 μL ultra-pure water. The samples were shaken at 800 rpm for about 10 min before LC/MS/MS analysis.
The remaining percentage of compound 1 (test article) after incubation was calculated according to the following equation.

Data set [2] in a line: Stability in hepatocytes (human). Type of data set: in vitro ADME. The settings on record: cryopreserved human hepatocytes (suspension). The procedure:
10 mM of 1 was provided as a 1000× stock solution in dimethylsulfoxide (DMSO), and the stock solution was diluted to 1 mM with DMSO in 96-well plates. 30 mM of positive compounds (7-ethoxycoumarin and 7-hydroxycoumarin) were provided as a 1000× stock solution in DMSO, and the stock solution was diluted to 3 mM with DMSO in 96-well plates. 20 μL of 1000× stock solution of each compound were pipetted and was mixed with 380 μL of 45% MeOH/H2O to obtain 50 μM of 1 and 150 μM of the positive control compound solutions to form 50× intermediate solutions. 20 μL of 50× intermediate solution of each compound were pipetted and was mixed with […] of pre-warmed incubation medium to obtain 5 μM of 1 and 15 μM of the positive control compound solutions to form 5× working solutions. The incubation medium was Williams' Medium E (no phenol red) containing 2 mM L-glutamine and 25 mM HEPES. 10 μL of 5× working solutions of each compound were pipetted into appropriate wells in a 96-well plate for time points of 0 minutes, 15 minutes, 30 minutes, 60 minutes, and 90 minutes in duplicates. The plates with compounds were kept warm in an incubator at 37° C.
A cell suspension was prepared by thawing cryopreserved cells, isolating the cells, and suspending the cells in thawing medium. […]
The remaining percentage of 1 after incubation was calculated according to the following equation. […]

The target of another data set is T2, CYP2D6 (Homo sapiens, UniProt P10635).
T2 construct: from tissue
T2 sequence (P10635 whole entry): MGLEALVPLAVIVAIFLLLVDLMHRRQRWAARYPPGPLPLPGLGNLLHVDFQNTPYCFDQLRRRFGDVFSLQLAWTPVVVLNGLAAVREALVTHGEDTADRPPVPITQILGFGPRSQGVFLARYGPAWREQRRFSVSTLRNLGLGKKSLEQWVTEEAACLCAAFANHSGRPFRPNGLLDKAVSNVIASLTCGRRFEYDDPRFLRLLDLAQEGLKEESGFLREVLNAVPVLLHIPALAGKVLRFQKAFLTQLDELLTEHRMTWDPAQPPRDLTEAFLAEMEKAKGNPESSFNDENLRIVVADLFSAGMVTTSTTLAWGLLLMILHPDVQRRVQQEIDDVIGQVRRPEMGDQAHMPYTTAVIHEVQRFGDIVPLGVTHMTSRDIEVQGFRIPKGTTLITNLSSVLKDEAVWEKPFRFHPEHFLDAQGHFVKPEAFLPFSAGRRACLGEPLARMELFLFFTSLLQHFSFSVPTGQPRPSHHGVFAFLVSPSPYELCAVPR
Briefly: 5 in 1 CYP inhibition assay, CYP2D6. Type of data set: in vitro ADME. Particulars: microsomes, probe dextromethorphan (O-demethylation), test compound 10 μM, n=2, read-out: inhibition of cytochrome P450 isoform 2D6. As for the experimental part:
as §1

T1 sequence (P11712 whole entry): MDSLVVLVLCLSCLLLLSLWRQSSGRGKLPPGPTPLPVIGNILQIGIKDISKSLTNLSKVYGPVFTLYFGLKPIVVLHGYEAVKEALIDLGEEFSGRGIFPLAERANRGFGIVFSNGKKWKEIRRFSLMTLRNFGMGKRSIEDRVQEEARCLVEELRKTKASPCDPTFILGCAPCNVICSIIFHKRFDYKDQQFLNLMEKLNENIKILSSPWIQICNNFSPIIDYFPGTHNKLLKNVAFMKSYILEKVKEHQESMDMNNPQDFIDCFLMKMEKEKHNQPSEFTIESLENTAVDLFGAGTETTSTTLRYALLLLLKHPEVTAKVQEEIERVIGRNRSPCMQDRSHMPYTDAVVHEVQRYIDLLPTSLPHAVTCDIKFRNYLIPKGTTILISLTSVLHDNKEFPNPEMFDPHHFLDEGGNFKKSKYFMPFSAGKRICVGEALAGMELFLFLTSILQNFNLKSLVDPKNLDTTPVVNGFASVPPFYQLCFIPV

As for `C[C@H](CC/C=C/C(=O)OC(C)(C)C)O[C@@H]1O[C@@H](C)[C@H](O)C[C@H]1O` [Compound 1, tert-butyl (2E,6R)-6-{[(2R,3R,5R,6S)-3,5-dihydroxy-6-methyloxan-2-yl]oxy}hept-2-enoate], on CYP2C9, the inhibition at 10 min, 10 µM worked out at 4.3%. Further, in the data set with human naïve T cells, the “percent inhibition relative to Stimulated of IFNγ expression” value is given as “in a statistically significant, dose-dependent manner”; the “percent inhibition relative to Stimulated of IL-5 expression” value is listed as “in a statistically significant, dose-dependent manner”; the “percent inhibition relative to Stimulated of TGFβ expression” value is given as “in a statistically significant, dose-dependent manner”. Also, the “remaining percentage after incubation” value in data set [1] is recorded as 19.2%. Besides, the half-life at 1 µM in data set [2] came out at 1.77 h. Besides, the inhibition at 10 min, 10 µM on CYP2D6 came to 10.1%.

For the molecule `C[C@H](CC/C=C/C(=O)O)O[C@@H]1O[C@@H](C)[C@H](O)C[C@H]1O` [ascr #7, reference compound], on CYP2C9, the inhibition at 10 min, 10 µM was determined as 0%. Further, in the data set with human naïve T cells, the “percent inhibition relative to Stimulated of IFNγ expression” value is listed as “statistically significant, robust blocking”; the “percent inhibition relative to Stimulated of IL-5 expression” value is recorded as “dose-dependent inhibition”; the “percent inhibition relative to Stimulated of TGFβ expression” value is given as “slight attenuation”. For the same molecule, the “remaining percentage after incubation” value in data set [1] amounted to 99.8%. The half-life at 1 µM in data set [2] is above 3.61 h. The inhibition at 10 min, 10 µM on CYP2D6 was 4.6%.

The term inhibition denotes the drop in the measured response relative to a control, in per cent. As usually defined, the half-life is how long it takes for the measured level to halve.

The values are drawn from US11845770B2, “Ascaroside derivatives and methods of use” (California Institute of Technology, priority 2019, dated 2023).
